{"source": "patent US12551482B2", "about": "“Aurora kinase inhibitors” (The Regents of the University of California, priority 2013, dated 2026)", "key": {"Aurora A": {"biological_target": "T1, Aurora A (Homo sapiens, UniProt O14965, T287D)", "T1 construct": "Aurora A (residues 123-390, T287D) was cloned into a pET28a plasmid; hexahistidine (PreScission Protease-cleavable) (cleaved yes); made in house; host or cells: E. coli BL-21(DE3)", "T1 sequence (O14965 123-390 T287D)": "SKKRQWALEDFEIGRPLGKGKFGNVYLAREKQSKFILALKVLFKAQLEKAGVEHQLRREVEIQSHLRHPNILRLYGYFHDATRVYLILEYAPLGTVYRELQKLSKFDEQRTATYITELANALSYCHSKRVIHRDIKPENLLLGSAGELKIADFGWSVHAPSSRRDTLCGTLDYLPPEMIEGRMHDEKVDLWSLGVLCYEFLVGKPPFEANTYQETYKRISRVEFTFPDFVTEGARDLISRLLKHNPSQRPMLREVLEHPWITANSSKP", "assay": "In vitro kinase assay for Aurora A (32P ATP)", "format": "biochemical", "description": "Kinase assays for Aurora A were performed in 10 mM HEPES pH 7.5, 10 mM MgCl2, 0.01% Triton, 4% v/v DMSO, 5 nM kinase, and either 4 μM histone H3 or 30 μM synthetic peptide [sequence] (Elim Biopharmaceuticals, Inc). Drug concentration ranged from 2000-5 nM. Reactions were preincubated with inhibitor for ten minutes before initiation by addition of 100 μM nonradioactive ATP supplemented with ^32P ATP (1 mCi in 200 μL, Perkin-Elmer, 0.8 ρCi per reaction). Reactions were quenched at 10 min by spotting 3 μL quantity onto P81 phosphocellulose (Whatman), which were washed 5×5′ in 0.1% phosphoric acid and dried. Radioactivity was measured by phosphorimaging and recorded on a Typhoon fluorescence imager (Molecular Dynamics)."}, "MYCN [1]": {"tested_on": "MYCN", "assay": "MYCN protein by western blot in SK-N-BE(2) cells", "format": "cell-based", "settings": "for efficacy against MYCN (loss of MYCN protein), in words: 24 hrs, 1 μM of compound (FIG. 3)", "experimental": "(§1) Neuroblastoma tumor cell lines were obtained from the University of California San Francisco Cell Culture Facility (Kelly, SK-N-BE2, and SH-EP). SMS-KCN, SHEP MYCN^wt and MYCN^T58A/S62A cells were obtained. All cells were grown in RPMI with 10% FBS. Neuroblastoma cells were harvested and lysed with Cell Signaling Lysis buffer+1% SDS, sonicated and supernatants boiled in LDS sample buffer (Invitrogen). Western blots were performed as described previously (Chanthery et al., 2012), with primary antibodies to MYCN (ab24193, Abcam), Histone H3, P-Histone H3 (S10), Aurora A (Cell signaling), and GAPDH (Millipore). Western blot quantitation performed with ImageJ software."}, "P-Histone H3 (S10)": {"tested_on": "P-Histone H3 (S10)", "assay": "Dose response immunoblot for phosphorylation of Histone H3 (S10) in MYCN-amplified neuroblastoma cell lines", "format": "cell-based", "settings": "FIGS. 1D and 7", "experimental": "as §1"}, "MYCN [2]": {"tested_on": "MYCN", "assay": "MYCN protein by immunoblot in SHEP cells expressing MYCN", "format": "cell-based", "settings": "SHEP cells expressing MYCNWT, 24 hrs, increasing concentrations (FIG. 12C)", "experimental": "as §1\nMYCN is believed to be sequentially phosphorylated at S62/T58 before it is targeted for degradation by ubiquitination, and only phosphorylated, ubiquitinated MYCN is protected from degradation by Aurora A (Gustafson and Weiss, 2010; Otto et al., 2009)."}, "MYCN [3]": {"tested_on": "MYCN", "assay": "Screen of Kelly MYCN-amplified cells, western blot for MYCN", "format": "cell-based", "settings": "1 μM, 24 hrs", "experimental": "as §1\n(§2) To test whether this panel of 32 putative conformation-disrupting Aurora A inhibitors would destabilize MYCN, initially Kelly MYCN-amplified neuroblastoma cells were treated with candidate inhibitors and MYCN protein was measured by western blot. Phosphorylation of Histone H3, a known substrate for Aurora A and B and a marker for mitosis, was also assessed. FIGS. 1B and 5 show decreased levels of both MYCN protein and p-Histone H3 in response to several members of the screening panel (quantitated in FIG. 1)."}, "MYCN [4]": {"tested_on": "MYCN", "assay": "Dose response immunoblot for MYCN in MYCN-amplified neuroblastoma cell lines (SK-N-BE(2), SMS-KCN, Kelly)", "format": "cell-based", "settings": "multiple cell lines, 24 hrs (FIGS. 1D and 7)", "experimental": "as §1"}, "phospho-histone H3": {"tested_on": "phospho-histone H3", "assay": "Screen of Kelly MYCN-amplified cells, western blot for phospho-histone H3", "format": "cell-based", "settings": "1 μM, 24 hrs", "experimental": "as §1, §2"}, "[5]": {"tested_on": "MYCN amplified neuroblastoma cells", "assay": "Cell cycle by flow cytometry", "format": "cell-based", "experimental": "(§3) Neuroblastoma cells were treated for the indicated time, trypsinized, washed, stained with Dylight 800 at 0.3 μg/mL (Pierce, 46421), fixed with 1.5% PFA, and permeabilized with 100% methanol. Cells were then stained with antibodies against p-MPM2 (Millipore, 16-155), p-pan-Aurora (Cell Signaling, 2914), MYCN (Thermo, PA5-17403), rabbit IgG (Invitrogen, A10542), or mouse IgG (BioLegend, 405307). Cells were stained with DAPI at 0.3 μg/mL (Invitrogen, D21490) and analyzed on the BD LSR II flow cytometer. For cell cycle analysis, cells were stimulated with EdU for 2 hours prior to harvest, then probed using the Click-iT EdU Flow Cytometry Assay Kit (Invitrogen, C10424). Cells were stained with propidium iodide (BD, 556547) and analyzed on the BD FACSCalibur flow cytometer. Data was gated using Cytobank. For viability studies, neuroblastoma cells were plated in 96-well plates at a density of 1,000 cells/well for SHEP or 4,000 cells/well for Kelly or SK—N-BE2 cells, then incubated with indicated concentrations of drug for 72 hours at 37° C. Plates were frozen at −80° C. to induce cell lysis. CyQUANT reagent mixture (Invitrogen, C7026) was added to thawed plates, then fluorescence was measured. Alternatively, resazurin (Sigma-Aldrich, R7017) was added directly to wells following drug treatment then incubated for 4 hours at 37° C. prior to measuring fluorescence. Data was analyzed using GraphPad Prism software."}, "phospho-pan-Aurora": {"tested_on": "phospho-pan-Aurora", "assay": "Phospho-pan-Aurora by flow cytometry", "format": "cell-based", "settings": "1 μM, 6 hrs (FIG. 6C)", "experimental": "as §3"}, "p-Histone H3": {"tested_on": "p-Histone H3", "assay": "p-Histone H3 by immunoblot in compound-treated cells (structure-activity)", "format": "cell-based", "experimental": "as §1"}, "MYCN-Aurora A complex": {"biological_target": "T2, MYCN-Aurora A complex (Homo sapiens, UniProt O14965)", "T2 construct": "Representative immunoprecipitation of MYCN and immunoblots from MYCN-amplified IMR32 cells; endogenous in cells", "T2 sequence (O14965 whole entry, one chain of several)": "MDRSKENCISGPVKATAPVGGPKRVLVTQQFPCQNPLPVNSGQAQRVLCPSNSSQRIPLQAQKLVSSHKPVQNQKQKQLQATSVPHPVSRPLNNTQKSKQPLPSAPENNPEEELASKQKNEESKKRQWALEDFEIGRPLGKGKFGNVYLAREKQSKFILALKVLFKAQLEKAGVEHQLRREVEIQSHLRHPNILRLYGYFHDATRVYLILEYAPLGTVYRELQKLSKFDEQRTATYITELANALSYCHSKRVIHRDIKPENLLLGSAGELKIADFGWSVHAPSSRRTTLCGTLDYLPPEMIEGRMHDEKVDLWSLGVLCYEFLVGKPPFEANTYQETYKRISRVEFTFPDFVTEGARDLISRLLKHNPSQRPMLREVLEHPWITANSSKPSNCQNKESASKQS", "assay": "Pulldown of MYCN and immunoblot for Aurora A", "format": "cell-based", "settings": "MYCN-amplified IMR32 cells, 4 hrs MG-132, 2 hrs drug, increasing concentrations"}, "[6]": {"tested_on": "Kelly MYCN-amplified neuroblastoma cells", "assay": "Viability at 72 hrs, CyQUANT assay", "format": "cell-based", "settings": "FIG. 1F, read-out: cellular EC50 at 72 hrs", "experimental": "as §3, with “Plates were frozen at −80° C. to induce cell lysis.” left out"}, "Aurora A protein": {"biological_target": "T3, Aurora A protein (Homo sapiens, UniProt O14965)", "T3 construct": "endogenous in cells; host or cells: SK-N-BE(2), SMS-KCN, Kelly neuroblastoma cells", "T3 sequence (O14965 whole entry)": "as the sequence (O14965 whole entry, one chain of several) above", "assay": "Dose response immunoblot for Aurora A protein in MYCN-amplified neuroblastoma cell lines", "format": "cell-based", "settings": "across cell lines (FIGS. 1D and 7)", "description": "Neuroblastoma tumor cell lines were obtained from the University of California San Francisco Cell Culture Facility (Kelly, SK-N-BE2, and SH-EP). SMS-KCN, SHEP MYCN^wt and MYCN^T58A/S62A cells were obtained. All cells were grown in RPMI with 10% FBS. Neuroblastoma cells were harvested and lysed with Cell Signaling Lysis buffer+1% SDS, sonicated and supernatants boiled in LDS sample buffer (Invitrogen). […] Western blot quantitation performed with ImageJ software."}, "[7]": {"settings": "delivered at the same dose (20 mg/kg); cited from earlier work"}, "MYCN [8]": {"tested_on": "MYCN", "assay": "MYCN levels in JM134- vs NHC532-treated cells (FIG. 10)", "format": "cell-based"}, "tumor-derived cell lines": {"tested_on": "tumor-derived cell lines", "assay": "Screen of panel of tumor-derived, genetically characterized cell lines", "format": "cell-based", "settings": "Wilcoxon Rank Sum test"}}, "note": "“Also recorded” adds a separate entry of the source."}
{"smiles": "Cc1cc(Nc2cc(C3CCCCC3)[nH]n2)nc(Nc2ccc(NC(=O)Nc3ccccc3)cc2)n1", "note": "[CD24, 3-[4-({4-[(5-cyclohexyl-1H-pyrazol-3-yl)amino]-6-methylpyrimidin-2-yl}amino)phenyl]-1-phenylurea]", "values": [{"measurement": "potency against Aurora A (biochemical, cell-free), in words", "setting": "Aurora A", "value": "lost both potency against Aurora A and efficacy against MYCN"}, {"measurement": "efficacy against MYCN (loss of MYCN protein), in words", "setting": "MYCN [1]", "value": "lost both potency against Aurora A and efficacy against MYCN"}]}
{"smiles": "Cc1cc(Nc2cc(N3CCN(C)CC3)nc(Sc3ccc(NC(=O)C4CC4)cc3)n2)n[nH]1", "note": "[VX-680]", "values": [{"measurement": "phosphorylation of Histone H3 at S10, dose response", "setting": "P-Histone H3 (S10)", "value": "abrogates phosphorylation of Histone H3 at S10"}, {"measurement": "wild-type MYCN protein", "setting": "MYCN [2]", "value": "little effect on MYCN protein levels"}, {"measurement": "MYCN protein level", "setting": "MYCN [3]", "value": "much more modest effects on levels of MYCN protein"}, {"measurement": "MYCN protein, dose response", "setting": "MYCN [4]", "value": "little loss of MYCN protein even at doses 100 to 1000 times greater than their IC50 values for Aurora A"}, {"measurement": "p-Histone H3 level", "setting": "phospho-histone H3", "value": "blocked Histone H3 phosphorylation at 1 μM"}, {"measurement": "cell cycle effect", "setting": "[5]; 4 or 6 hrs of treatment", "value": "G2/M arrest"}, {"measurement": "phospho-pan-Aurora", "setting": "phospho-pan-Aurora", "value": "loss of phospho-pan-Aurora"}]}
{"smiles": "Cc1cc(Nc2cc(C3CCCC3)[nH]n2)nc(Nc2ccc(NC(=O)Nc3cccc(C(F)(F)F)c3)cc2)n1", "note": "[CD15, 1-(4-((4-((5-cyclopentyl-1H-pyrazol-3-yl)amino)-6-methylpyrimidin-2-yl)amino)phenyl)-3-(3-(trifluoromethyl)phenyl)urea]", "values": [{"measurement": "potency against Aurora A (biochemical, cell-free), in words", "setting": "Aurora A", "value": "maintained both cell-free potency and efficacy against MYCN"}, {"measurement": "efficacy against MYCN (loss of MYCN protein), in words", "setting": "MYCN [1]", "value": "maintained both cell-free potency and efficacy against MYCN"}]}
{"smiles": "Cc1cc(Nc2cc(C3CCCCC3)[nH]n2)nc(Nc2ccc(NC(=O)Nc3cccc(C(F)(F)F)c3)cc2)n1", "note": "[CD22, 3-[4-({4-[(5-cyclohexyl-1H-pyrazol-3-yl)amino]-6-methylpyrimidin-2-yl}amino)phenyl]-1-[3-(trifluoromethyl)phenyl]urea]", "values": [{"measurement": "potency against Aurora A (biochemical, cell-free), in words", "setting": "Aurora A", "value": "lost both potency against Aurora A and efficacy against MYCN"}, {"measurement": "efficacy against MYCN (loss of MYCN protein), in words", "setting": "MYCN [1]", "value": "lost both potency against Aurora A and efficacy against MYCN"}]}
{"smiles": "O=C(Nc1ccccc1)Nc1ccc(Nc2nccc(Nc3cc(C4CCCC4)[nH]n3)n2)cc1", "note": "[CD25, 3-[4-({4-[(5-cyclopentyl-1H-pyrazol-3-yl)amino]pyrimidin-2-yl}amino)phenyl]-1-phenylurea]", "values": [{"measurement": "Histone H3 phosphorylation", "setting": "p-Histone H3; SK-N-BE(2) cells, 24 hrs, 1 μM (FIG. 3D)", "value": "loss of Histone H3 phosphorylation"}, {"measurement": "potency against Aurora A (biochemical, cell-free), in words", "setting": "Aurora A", "value": "retained potency against Aurora Kinase A activity"}, {"measurement": "efficacy against MYCN (loss of MYCN protein), in words", "setting": "MYCN [1]", "value": "less effective than CD532 in driving MYCN loss"}]}
{"smiles": "COc1cc(Nc2ncc3c(n2)-c2ccc(Cl)cc2C(c2c(F)cccc2OC)=NC3)ccc1C(=O)O", "note": "[MLN8237]", "values": [{"measurement": "phosphorylation of Histone H3 at S10, dose response", "setting": "P-Histone H3 (S10)", "value": "initial increase in S10 phosphorylation at lower concentrations, followed by a sharp drop at higher concentrations"}, {"measurement": "MYCN protein level", "setting": "MYCN [3]", "value": "much more modest effects on levels of MYCN protein"}, {"measurement": "MYCN protein, dose response", "setting": "MYCN [4]", "value": "little or no response to high concentrations; also recorded: little loss of MYCN protein even at doses 100 to 1000 times greater than their IC50 values for Aurora A"}, {"measurement": "p-Histone H3 level", "setting": "phospho-histone H3", "value": "blocked Histone H3 phosphorylation at 1 μM"}, {"measurement": "MYCN-Aurora A interaction", "setting": "MYCN-Aurora A complex", "value": "partial loss of interaction; also recorded: only modestly disrupted this interaction"}, {"measurement": "cell cycle effect", "setting": "[5]; 4 or 6 hrs of treatment", "value": "G2/M arrest"}, {"measurement": "EC50", "setting": "[6]", "value": 33.9, "unit": "nM"}, {"measurement": "Aurora A protein level", "setting": "Aurora A protein", "value": "upregulated or had little effect on Aurora A protein"}, {"measurement": "phospho-pan-Aurora", "setting": "phospho-pan-Aurora", "value": "loss of phospho-pan-Aurora"}, {"measurement": "AUC0-24", "setting": "[7]", "value": 78.4, "unit": "µM·h"}, {"measurement": "time dependence of MYCN protein loss", "setting": "MYCN [1]; 1 μM, time course (FIG. 12A)", "value": "similarly rapid, but much more modest decrease in levels of MYCN protein that does not change over time"}]}
{"smiles": "O=C(Nc1ccc(Nc2nccc(Nc3cc(-c4ccco4)[nH]n3)n2)cc1)Nc1cccc(C(F)(F)F)c1", "note": "[JM134, 1-(4-((4-((5-(furan-2-yl)-1H-pyrazol-3-yl)amino)pyrimidin-2-yl)amino)phenyl)-3-(3-(trifluoromethyl)phenyl)urea]", "values": [{"measurement": "level of p-Histone H3 compared to NHC532-treated cells", "setting": "p-Histone H3; FIG. 10", "value": "higher level of p-Histone H3"}, {"measurement": "increase in biochemical IC50 against Aurora A compared to NHC532 (CD532)", "setting": "Aurora A", "value": 5, "unit": "fold"}, {"measurement": "potency against Aurora A (biochemical, cell-free), in words", "setting": "Aurora A", "value": "decreased binding affinity to Aurora A"}, {"measurement": "MYCN levels compared to NHC532 (CD532)", "setting": "MYCN [8]", "value": "still decreases MYCN levels (though not as completely)"}]}
{"smiles": "Cc1sc2c(c1C)C(c1ccc(Cl)cc1)=N[C@@H](CC(=O)OC(C)(C)C)c1nnc(C)n1-2", "note": "[JQ1, reference compound]", "values": [{"measurement": "susceptibility of MYCN amplified vs non-amplified cell lines", "setting": "tumor-derived cell lines", "value": "significantly more susceptible to JQ1 than non-amplified lines"}, {"measurement": "cell cycle effect", "setting": "[5]; 24 hrs of treatment", "value": "blockade of S-phase entry and accumulation of cells in G0/G1"}]}
